Laboratory results as given in PubChem BioAssay (NCI).
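Exposure lasted 48 hours, with cells grown in 96-well plates and compounds tested at five concentrations. TGI: concentration producing complete growth inhibition.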

How the values were obtained:
Assay in all cases: NCI tumour cell line growth inhibition, 48 h
786-0 renal = tested on: 786-0 renal
OVCAR-8 ovarian = tested on: OVCAR-8 ovarian
SK-MEL-28 melanoma = tested on: SK-MEL-28 melanoma
IGROV1 ovarian = tested on: IGROV1 ovarian
SK-MEL-5 melanoma = tested on: SK-MEL-5 melanoma
HCC-2998 colon = tested on: HCC-2998 colon
ACHN renal = tested on: ACHN renal
RXF 393 renal = tested on: RXF 393 renal
SF-268 CNS = tested on: SF-268 CNS
OVCAR-4 ovarian = tested on: OVCAR-4 ovarian

Measured: TGI

O=C(/C=C/c1ccccc1Cl)NC1C=Nc2ccc([N+](=O)[O-])cc2NC1 (stereo not given)
> 100 µM: all assays above
